Experimental data from ChEMBL document CHEMBL3877312, “Synthesis, anticholinesterase activity and molecular modeling study of novel carbamate-substituted thymol/carvacrol derivatives” (Bioorg Med Chem, 2017).
pIC50: −log10 of the molar value.

Assays:
Cholinesterase = Cholinesterase (Equus caballus, UniProt P81908); experiment: Inhibition of horse serum BuChE using butyrylthiocholine iodide as substrate preincubated for 15 mins followed by substrate addition by Ellman's method
Acetylcholinesterase = Acetylcholinesterase (Electrophorus electricus, UniProt O42275); experiment: Inhibition of electric eel AChE using acetylthiocholine iodide as substrate preincubated for 15 mins followed by substrate addition by Ellman's method
Sequence of Acetylcholinesterase (O42275 whole entry): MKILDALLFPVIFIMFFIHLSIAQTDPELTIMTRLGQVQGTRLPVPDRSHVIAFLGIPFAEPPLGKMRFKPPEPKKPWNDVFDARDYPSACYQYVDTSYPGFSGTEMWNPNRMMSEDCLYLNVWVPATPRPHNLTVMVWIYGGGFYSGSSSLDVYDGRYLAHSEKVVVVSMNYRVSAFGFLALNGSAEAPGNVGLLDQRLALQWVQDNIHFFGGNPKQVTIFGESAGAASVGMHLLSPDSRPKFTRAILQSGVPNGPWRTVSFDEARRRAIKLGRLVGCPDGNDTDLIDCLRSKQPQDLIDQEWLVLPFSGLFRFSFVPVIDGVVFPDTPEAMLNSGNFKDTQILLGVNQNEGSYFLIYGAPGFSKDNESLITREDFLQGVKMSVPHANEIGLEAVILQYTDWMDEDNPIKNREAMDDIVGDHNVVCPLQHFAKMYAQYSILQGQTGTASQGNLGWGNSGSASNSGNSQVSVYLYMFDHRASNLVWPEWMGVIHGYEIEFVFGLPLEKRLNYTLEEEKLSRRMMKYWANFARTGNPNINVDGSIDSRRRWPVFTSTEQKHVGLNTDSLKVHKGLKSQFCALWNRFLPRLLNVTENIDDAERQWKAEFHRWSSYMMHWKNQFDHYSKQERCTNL

[1] = Cytotoxicity against rat H4IIE cells assessed as cell viability at 0.6 uM after 24 hrs by MTT assay relative to control; type: toxicity; settings: read-out: Activity
[2] = Cytotoxicity against rat H4IIE cells assessed as cell viability at 1.25 uM after 24 hrs by MTT assay relative to control; type: toxicity; settings: read-out: Activity
[3] = Cytotoxicity against rat H4IIE cells assessed as cell viability at 0.15 uM after 24 hrs by MTT assay relative to control; type: toxicity; settings: read-out: Activity
[4] = Cytotoxicity against rat H4IIE cells assessed as cell viability at 5 uM after 24 hrs by MTT assay relative to control; type: toxicity; settings: read-out: Activity
[5] = Cytotoxicity against rat H4IIE cells assessed as cell viability at 0.07 uM after 24 hrs by MTT assay relative to control; type: toxicity; settings: read-out: Activity
[6] = Cytotoxicity against rat H4IIE cells assessed as cell viability at 2.5 uM after 24 hrs by MTT assay relative to control; type: toxicity; settings: read-out: Activity
[7] = Cytotoxicity against rat H4IIE cells assessed as cell viability at 10 uM after 24 hrs by MTT assay relative to control; type: toxicity; settings: read-out: Activity
[8] = Cytotoxicity against rat H4IIE cells assessed as cell viability at 0.3 uM after 24 hrs by MTT assay relative to control; type: toxicity; settings: read-out: Activity

Sequence of Cholinesterase (P81908 whole entry): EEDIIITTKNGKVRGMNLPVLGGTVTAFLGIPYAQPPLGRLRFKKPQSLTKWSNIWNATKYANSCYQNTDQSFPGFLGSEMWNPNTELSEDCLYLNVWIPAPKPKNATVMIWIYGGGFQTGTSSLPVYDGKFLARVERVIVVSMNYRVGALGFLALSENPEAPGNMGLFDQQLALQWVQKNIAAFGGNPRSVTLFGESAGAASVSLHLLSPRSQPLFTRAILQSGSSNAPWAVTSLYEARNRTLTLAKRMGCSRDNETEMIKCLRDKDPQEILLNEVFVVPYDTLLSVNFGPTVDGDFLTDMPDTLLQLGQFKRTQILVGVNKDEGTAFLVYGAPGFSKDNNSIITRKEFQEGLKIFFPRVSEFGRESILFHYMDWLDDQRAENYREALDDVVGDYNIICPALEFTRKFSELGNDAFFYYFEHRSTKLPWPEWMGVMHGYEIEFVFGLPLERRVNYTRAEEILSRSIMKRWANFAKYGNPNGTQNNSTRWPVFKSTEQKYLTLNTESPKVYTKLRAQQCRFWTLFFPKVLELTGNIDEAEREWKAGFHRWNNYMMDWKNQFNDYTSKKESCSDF

SMILES	pIC50 (Cholinesterase)	pIC50 (Acetylcholinesterase)	further results
COc1ccc(NC(=O)Oc2cc(C)ccc2C(C)C)cc1	4.22		
Cc1ccc(NC(=O)Oc2cc(C(C)C)ccc2C)cc1	6.51	5.21	
Cc1ccc(C(C)C)cc1OC(=O)Nc1ccc(Cl)cc1	6.89	3.83	
Cc1ccc(C(C)C)c(OC(=O)Nc2ccc([N+](=O)[O-])cc2)c1	4.42	5.60	viability at 24 h, 0.6 µM [1]: 51.7%; viability at 24 h, 1.25 µM [2]: 47.2%; viability at 24 h, 0.15 µM [3]: 57.8%; viability at 24 h, 5 µM [4]: 32.8%; viability at 24 h, 0.07 µM [5]: 97.8%; viability at 24 h, 2.5 µM [6]: 40%; viability at 24 h, 10 µM [7]: 26.1%; viability at 24 h, 0.3 µM [8]: 54.4%
Cc1ccc(C(C)C)cc1OC(=O)NCc1ccccc1	7.15	4.11	
Cc1ccc(C(C)C)cc1OC(=O)Nc1ccccc1	6.26	5.40	viability at 24 h, 0.6 µM [1]: 82.5%; viability at 24 h, 1.25 µM [2]: 60%; viability at 24 h, 0.15 µM [3]: 87.9%; viability at 24 h, 5 µM [4]: 25.8%; viability at 24 h, 0.07 µM [5]: 93.8%; viability at 24 h, 2.5 µM [6]: 43.3%; viability at 24 h, 10 µM [7]: 26%; viability at 24 h, 0.3 µM [8]: 90%
COc1cccc(NC(=O)Oc2cc(C(C)C)ccc2C)c1	5.79	5.65	
Cc1ccc(C(C)C)c(OC(=O)Nc2ccc(Cl)c(Cl)c2)c1	5.60	4.05	
Cc1ccc(C(C)C)c(OC(=O)Nc2cccc([N+](=O)[O-])c2)c1	5.48	4.08	
Cc1ccc(C(C)C)cc1OC(=O)Nc1ccc(Cl)c(Cl)c1	6.39	4.06	
Cc1ccc(C(C)C)c(OC(=O)Nc2ccc(Br)cc2)c1	3.97	4.01	
Cc1ccc(C(C)C)cc1OC(=O)NCC1CCCCC1	6.52	5.09	
Cc1ccc(C(C)C)cc1OC(=O)Nc1cccc(F)c1	5.99	5.65	viability at 24 h, 0.6 µM [1]: 64.4%; viability at 24 h, 1.25 µM [2]: 47.8%; viability at 24 h, 0.15 µM [3]: 90%; viability at 24 h, 5 µM [4]: 37.2%; viability at 24 h, 0.07 µM [5]: 98.1%; viability at 24 h, 2.5 µM [6]: 45.8%; viability at 24 h, 10 µM [7]: 28.5%; viability at 24 h, 0.3 µM [8]: 74.1%
COc1ccc(NC(=O)Oc2cc(C(C)C)ccc2C)cc1	6.28	4.26	
Cc1ccc(C(C)C)c(OC(=O)NC2CCCC2)c1	3.78	3.38	
Cc1ccc(C(C)C)cc1OC(=O)Nc1cccc2ccccc12	6.29	3.90	
Cc1ccc(C(C)C)cc1OC(=O)NC1CCCCCC1	3.95	3.90	
Cc1ccc(C(C)C)c(OC(=O)Nc2ccc(F)cc2)c1	3.39	3.57	
Cc1ccc(C(C)C)cc1OC(=O)NC1CCCCC1	5.99	4.64	

SMILES	pIC50 (Cholinesterase)	pIC50 (Acetylcholinesterase)	further results
Cc1ccc(C(C)C)cc1OC(=O)Nc1ccc([N+](=O)[O-])cc1	5.98	3.92	
COc1cccc(NC(=O)Oc2cc(C)ccc2C(C)C)c1	5.78	3.81	
Cc1ccc(C(C)C)cc1OC(=O)Nc1ccc(Br)cc1	6.82	3.98	
Cc1ccc(NC(=O)Oc2cc(C)ccc2C(C)C)cc1	5.03	3.64	
Cc1ccc(C(C)C)cc1OC(=O)Nc1ccc(C(F)(F)F)cc1	5.91	4.07	
Cc1ccc(C(C)C)c(OC(=O)Nc2ccc(C(F)(F)F)cc2)c1	3.83	4.01	
Cc1ccc(C(C)C)c(OC(=O)Nc2cccc(F)c2)c1	5.41	4.05	
Cc1ccc(C(C)C)cc1OC(=O)NC1CCCC1	6.00	5.47	viability at 24 h, 0.6 µM [1]: 63.3%; viability at 24 h, 1.25 µM [2]: 50.4%; viability at 24 h, 0.15 µM [3]: 75.6%; viability at 24 h, 5 µM [4]: 38.9%; viability at 24 h, 0.07 µM [5]: 94.4%; viability at 24 h, 2.5 µM [6]: 47.8%; viability at 24 h, 10 µM [7]: 37.4%; viability at 24 h, 0.3 µM [8]: 71.1%
Cc1ccc(C(C)C)c(OC(=O)NCC2CCCCC2)c1	4.43		
Cc1ccc(C(C)C)cc1OC(=O)Nc1cccc([N+](=O)[O-])c1	6.25	5.30	
Cc1ccc(C(C)C)c(OC(=O)Nc2ccc(Cl)cc2)c1	3.86	3.64	
Cc1ccc(C(C)C)c(OC(=O)Nc2ccccc2)c1	5.30	3.70	
Cc1ccc(C(C)C)cc1OC(=O)Nc1ccc(F)cc1	7.70	5.52	viability at 24 h, 0.6 µM [1]: 65.9%; viability at 24 h, 1.25 µM [2]: 62.2%; viability at 24 h, 0.15 µM [3]: 69.4%; viability at 24 h, 5 µM [4]: 32.8%; viability at 24 h, 0.07 µM [5]: 92.8%; viability at 24 h, 2.5 µM [6]: 41.6%; viability at 24 h, 10 µM [7]: 28.5%; viability at 24 h, 0.3 µM [8]: 68.9%
Cc1ccc(C(C)C)c(OC(=O)NCc2ccccc2)c1	5.84	3.95	
Cc1ccc(C(C)C)cc1OC(=O)Nc1ccc(I)cc1	6.68	3.86	
Cc1ccc(C(C)C)c(OC(=O)Nc2ccc(I)cc2)c1	5.32	4.50	
Cc1ccc(C(C)C)c(OC(=O)Nc2cccc3ccccc23)c1	4.02	3.80	
Cc1ccc(C(C)C)cc1O [CARVACROL]	3.39	3.54	
Cc1ccc(C(C)C)c(O)c1 [THYMOL]	3.65	3.34	
